The values below come from PubChem BioAssay (NCI).

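In this assay, cells in 96-well plates receive the compound at five concentrations for 48 hours. Endpoints are linearly interpolated between the surrounding concentrations. TGI: concentration producing complete growth inhibition.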

Common to all, as to experiment: inhibition of tumour cell growth, NCI panel, 48 h
Experiment [1] has as its system DLD-1 colon.
The subject of experiment [2] is DMS 114 small cell lung.
Experiment [3] relates to DMS 273 small cell lung.
Experiment [4] concerns HCT-116 colon.
The test system of experiment [5] is MOLT-4 leukemia.
The subject of experiment [6] is SNB-78 CNS.
Experiment [7] relates to XF 498 CNS.
For experiment [8], the system named is LXFL 529 NSCLC.
For experiment [9], the system named is M19-MEL melanoma.
Experiment [10] has as its system KM20L2 colon.
Experiment [11] concerns HOP-18 NSCLC.
Experiment [12] concerns RXF-631 renal.

As to `Cc1ccc(NC(=O)c2cc3cc(N=Nc4ccc(Br)cc4)ccc3oc2=O)cc1`, the TGI in experiment [1], in experiment [2], in [3], in [4], in experiment [5] and in experiment [6] was > 100 µM each time. Besides, the TGI in [7] is > 100 µM.
For the compound `O=C(Nc1ccccc1-c1n[nH]c(=S)[nH]c1=O)C(F)(F)F`, the TGI in experiment [1], in experiment [2], in experiment [3], in [4], in [8] and in experiment [9] was > 100 µM each time. Also, the TGI in experiment [5], in experiment [6] and in experiment [7] was > 100 µM throughout.
As to `CCOC(=O)Nc1cc2nnc(-c3ccccc3)nc2c(N)n1`, the TGI was > 100 µM in experiment [1]; > 100 µM in experiment [2]; 38.7 µM in [4]; 20.4 µM in experiment [10]; > 100 µM in experiment [8]; > 100 µM in experiment [9]. Further, the TGI in experiment [7] was > 100 µM.
Take `COC(=O)C1=C(c2ccc(OC)c(OC)c2)OC(c2ccc(OC)c(OC)c2)C1` (configuration not stated): the TGI in experiment [1] is > 100 µM; in [2], 77.5 µM; in [3], > 100 µM; in [4], > 100 µM; in experiment [11] it was > 100 µM; in experiment [10], > 100 µM. Also, the TGI in experiment [8] was 62.1 µM; in experiment [9] it was > 100 µM; in [5], 47.5 µM; in [6], > 100 µM; in [7], 65.2 µM.
For `Cc1ccc(S(=O)(=O)c2c(N)c3nc4ccccc4n3c3nc4ccccc4nc23)cc1`, the TGI in experiment [1], in experiment [2], in experiment [3], in [4], in experiment [10] and in experiment [8] was > 100 µM in each case. Also, the TGI in experiment [9], in experiment [5] and in [12] was > 100 µM throughout.
For the compound `Cc1cc(N(CCC#N)CCC#N)ccc1/C=C1N=C(/C=C\c2ccccc2)OC\1=O`, the TGI in experiment [1], in experiment [2], in experiment [3], in [4], in [11] and in experiment [10] was > 100 µM in each case. For the same compound, the TGI in experiment [8], in experiment [9], in [5], in experiment [6] and in [7] was > 100 µM each time.
In the case of `O=C(/C=C/c1ccc(OCCCOc2ccc(/C=C/C(=O)c3ccccc3)cc2)cc1)c1ccccc1`, the TGI in experiment [1], in experiment [2], in experiment [3], in experiment [4], in [10] and in [8] was > 100 µM in each case. In addition, the TGI in [9], in experiment [5] and in [12] was > 100 µM throughout.
As to `C/C(CN1C(=O)c2ccccc2C1=O)=N\NS(=O)(=O)c1ccc(C)cc1`, the TGI in experiment [1], in experiment [3], in [4], in experiment [11], in experiment [10] and in [8] was > 100 µM throughout. Also, the TGI in experiment [9], in [5] and in [6] was > 100 µM in each case.
As for `N#Cc1ccccc1NC(=O)/C(=N\N)C(C(=O)c1ccncc1)C1OC(=O)c2ccccc21` (configuration not stated), the TGI in experiment [4], in experiment [10], in experiment [8], in experiment [9], in [5] and in [7] was > 100 µM in each case.
With `COc1ccccc1/C=C(\C#N)c1ccccc1`, the TGI was > 100 µM in experiment [1]; 46.2 µM in experiment [2]; 50 µM in [3]; > 100 µM in experiment [4]; > 100 µM in [11]; > 100 µM in experiment [10]. The TGI in experiment [8] is > 100 µM; in [9] it was > 100 µM; in experiment [5], 97.3 µM; in experiment [6] it was > 100 µM.
As for `CN1N=CSC12C(=O)N(c1ccc(Cl)cc1)C(=O)N2c1ccc(Cl)cc1` (configuration not stated), the TGI was > 100 µM in [1]; 13.3 µM in experiment [4]; 69.7 µM in experiment [11]; > 100 µM in experiment [10]; > 100 µM in experiment [8]; > 100 µM in [9]. For the same compound, the TGI in experiment [5] is 12.3 µM; in experiment [6], > 100 µM.
For `COc1cccc2c1C(=O)C=CC2=O`, the TGI in [1] was 39 µM; in experiment [2] it was 10.3 µM; in experiment [3] it was 30.8 µM; in experiment [4], 12.1 µM; in [11], 23.6 µM; in [10] it was 30.6 µM. The TGI in experiment [8] worked out at 6.37 µM; in experiment [9], 16.1 µM; in experiment [5], 2.34 µM; in [6], 9.3 µM; in experiment [7], 5.25 µM.
